Data on 14 compounds can be found in ChEMBL document CHEMBL1201862, “PubChem BioAssay data set” (2004).

The structures appear in SMILES notation.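 48-hour exposure; five concentrations; linearly interpolated endpoints. Abbreviation: GI50, concentration required for 50% inhibition of growth.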 Active and inactive are the calls of the source. No stated cut-off is given here; in the data, active = GI50 up to about 1.1 µM and inactive = higher. Where only a bound is given, the exact number is not on record here.

Test systems include OVCAR-5; IGROV-1; SK-MEL-2; UACC-257; SK-MEL-28; HL-60; LOX IMVI; KM12; OVCAR-8; HOP-62; MOLT-4; SK-MEL-5; ACHN; HT-29; Malme-3M; SR.
Test in all cases: inhibition of tumour cell growth, NCI panel, 48 h

As for `O=C1/C(=C\c2ccccc2)C2/C(=C\c3ccccc3)C(=O)/C(=C\c3ccccc3)C2/C1=C\c1ccccc1` (configuration not stated), the GI50 is 1.41 µM (inactive) in the assay with OVCAR-5; 2.01 µM (inactive) with IGROV-1; 1.81 µM (inactive) with SK-MEL-2; 1.79 µM (inactive) in the assay on UACC-257; 2.18 µM (inactive) with SK-MEL-28; 0.608 µM (active) with HL-60. Besides, the GI50 in the assay on LOX IMVI was 0.316 µM (active); with KM12, 1.42 µM (inactive); with OVCAR-8 it was 0.412 µM (active); in the assay with HOP-62, 2.4 µM (inactive); in the assay with MOLT-4, 0.437 µM (active); in the assay on SK-MEL-5 it was 1.9 µM (inactive). Moreover, the GI50 is 2.29 µM (inactive) in the assay on ACHN, 1.34 µM (inactive) with HT-29 and 1.77 µM (inactive) with Malme-3M.

With `O=C(O)Cn1c(=O)[nH]c(=O)c2c1ncn2Cc1ccccc1`, the GI50 with OVCAR-5, in the assay on SK-MEL-2, in the assay on SK-MEL-28, with KM12, with OVCAR-8 and in the assay on HOP-62 was > 100 µM (inactive) throughout. For the same compound, the GI50 in the assay on MOLT-4, with SK-MEL-5, in the assay with ACHN, in the assay with HT-29, in the assay with SR and in the assay with Malme-3M was > 100 µM (inactive) each time.

As for `c1ccc2c(CNCCCCCCCCNCc3cccc4ccccc34)cccc2c1`, the GI50 was 2 µM (inactive) in the assay with OVCAR-5; 4.55 µM (inactive) with IGROV-1; 1.65 µM (inactive) in the assay on SK-MEL-2; 1.87 µM (inactive) with UACC-257; 1.9 µM (inactive) with SK-MEL-28; 1.86 µM (inactive) in the assay with HL-60. Besides, the GI50 with LOX IMVI was 1.23 µM (inactive); in the assay on KM12, 1.82 µM (inactive); in the assay with OVCAR-8, 1.86 µM (inactive); in the assay with HOP-62, 16.4 µM (inactive); in the assay with MOLT-4 it was 2.02 µM (inactive); with SK-MEL-5, 1.85 µM (inactive). The GI50 with ACHN is 2.9 µM (inactive); with HT-29, 1.8 µM (inactive); in the assay with Malme-3M it was 1.95 µM (inactive).

With `O=C(c1ccccc1)C1OC12C(=O)Nc1ccccc12` (configuration not stated), the GI50 was > 100 µM (inactive) with OVCAR-5; 47.6 µM (inactive) with IGROV-1; 44.2 µM (inactive) in the assay with SK-MEL-2; 35.7 µM (inactive) in the assay with UACC-257; 29.6 µM (inactive) with SK-MEL-28; 3.27 µM (inactive) with HL-60. Further, the GI50 is 45 µM (inactive) with LOX IMVI; 32.5 µM (inactive) in the assay with OVCAR-8; 62.5 µM (inactive) in the assay on HOP-62; 8.15 µM (inactive) in the assay on MOLT-4; 11.3 µM (inactive) with SK-MEL-5; 56.9 µM (inactive) in the assay on ACHN. The GI50 with HT-29 is 19.7 µM (inactive); in the assay with Malme-3M it was 29.6 µM (inactive).

For `CC(C)OP(=S)(NC(=S)c1ccccc1)OC(C)C`, the GI50 with OVCAR-5, with IGROV-1, in the assay on SK-MEL-2, in the assay with UACC-257, in the assay on SK-MEL-28 and with LOX IMVI was > 100 µM (inactive) throughout. The GI50 with KM12 is > 100 µM (inactive); in the assay on OVCAR-8, > 100 µM (inactive); with MOLT-4 it was > 100 µM (inactive); in the assay on SK-MEL-5, 42.9 µM (inactive); in the assay with ACHN it was > 100 µM (inactive); in the assay on HT-29 it was > 100 µM (inactive). Moreover, the GI50 with Malme-3M is > 100 µM (inactive).

Regarding `O=C(O)c1[nH]c(C(=O)O)c(CC(F)(F)C(F)(F)C(F)(F)F)c1CC(F)(F)C(F)(F)C(F)(F)F`, the GI50 in the assay with OVCAR-5, in the assay on IGROV-1, in the assay on UACC-257, with SK-MEL-28, in the assay on HL-60 and with LOX IMVI was > 100 µM (inactive) in each case. Besides, the GI50 in the assay with KM12, in the assay with OVCAR-8, in the assay with HOP-62, in the assay on SK-MEL-5, in the assay on ACHN and in the assay with HT-29 was > 100 µM (inactive) throughout. Further, the GI50 in the assay with Malme-3M was > 100 µM (inactive).

For the compound `C=CCN1/C(=C2\SC(=S)N(c3ccc(C)cc3)C2=O)Sc2c1nc[nH]c2=O`, the GI50 is > 100 µM (inactive) with OVCAR-5; 64.9 µM (inactive) in the assay on IGROV-1; 43.3 µM (inactive) with SK-MEL-2; > 100 µM (inactive) in the assay with UACC-257; > 100 µM (inactive) in the assay with SK-MEL-28; > 100 µM (inactive) with HL-60. Also, the GI50 in the assay with LOX IMVI was 33.9 µM (inactive); with OVCAR-8 it was > 100 µM (inactive); with HOP-62, > 100 µM (inactive); in the assay on MOLT-4, 58.9 µM (inactive); with SK-MEL-5, 66.1 µM (inactive); with ACHN, > 100 µM (inactive). The GI50 in the assay with HT-29 was > 100 µM (inactive); in the assay on Malme-3M, 78.2 µM (inactive).

For the compound `CCCCOC1CC2(c3ccc(OC)cc3)C(=O)c3ccccc3N2O1` (configuration not stated), the GI50 was > 10 µM (inactive) in the assay with OVCAR-5; > 10 µM (inactive) with IGROV-1; 71.6 µM (inactive) in the assay on SK-MEL-2; 16 µM (inactive) with UACC-257; > 10 µM (inactive) with LOX IMVI; 62.2 µM (inactive) in the assay on KM12. Besides, the GI50 in the assay with OVCAR-8 is 82.2 µM (inactive); in the assay on MOLT-4 it was 19 µM (inactive); in the assay on SK-MEL-5, 31.7 µM (inactive); in the assay with ACHN it was > 10 µM (inactive); in the assay on Malme-3M, 19.2 µM (inactive).

On to `COc1ccc(/C=c2/sc3n(c2=O)NC(c2ccc(Cl)cc2)NN=3)cc1` (configuration not stated), for which the GI50 with OVCAR-5, in the assay with IGROV-1, in the assay on SK-MEL-2, in the assay on SK-MEL-28, with LOX IMVI and in the assay on KM12 was > 100 µM (inactive) throughout. Further, the GI50 in the assay on OVCAR-8, in the assay on MOLT-4, in the assay with SK-MEL-5, with HT-29, in the assay on SR and with Malme-3M was > 100 µM (inactive) throughout.

In the case of `COc1nc(/C=N/NC(N)=S)nc(OC)n1`, the GI50 was > 100 µM (inactive) in the assay on OVCAR-5; > 100 µM (inactive) with IGROV-1; > 100 µM (inactive) with SK-MEL-2; > 100 µM (inactive) in the assay with UACC-257; > 100 µM (inactive) in the assay with SK-MEL-28; 45.8 µM (inactive) in the assay with HL-60. In addition, the GI50 in the assay with KM12 is > 100 µM (inactive); with OVCAR-8, 56.9 µM (inactive); in the assay with MOLT-4, 56.8 µM (inactive); in the assay on ACHN, 43.8 µM (inactive); with HT-29 it was 76 µM (inactive); in the assay with SR it was 68.7 µM (inactive). In the assay on Malme-3M, the GI50 is 72.1 µM (inactive).

In the case of `CCCCCC(=O)Cc1cc(OC)cc2c1C(=O)Oc1cc(O)c(C(=O)O)c(CC(=O)CCCCC)c1O2`, the GI50 was > 100 µM (inactive) with OVCAR-5; 39.4 µM (inactive) with IGROV-1; 71.4 µM (inactive) in the assay on UACC-257; 38.9 µM (inactive) with HL-60; 77.8 µM (inactive) in the assay with LOX IMVI; 46.5 µM (inactive) in the assay on KM12. The GI50 was 47.1 µM (inactive) in the assay with OVCAR-8; > 100 µM (inactive) in the assay on HOP-62; 27.2 µM (inactive) in the assay with MOLT-4; > 100 µM (inactive) in the assay with SK-MEL-5; 35.7 µM (inactive) with ACHN; 41.2 µM (inactive) in the assay on HT-29. Also, the figures for the GI50 with SR and in the assay on Malme-3M were 52.6 µM (inactive) and 51.4 µM (inactive), respectively.

Take `CNC(=O)NCCCC(NC(C)=O)C(=O)NCc1ccccc1` (configuration not stated): the GI50 in the assay with OVCAR-5, with IGROV-1, in the assay with SK-MEL-2, with UACC-257, with SK-MEL-28 and in the assay on LOX IMVI was > 100 µM (inactive) in each case. Further, the GI50 in the assay with KM12, in the assay on OVCAR-8, in the assay on HOP-62, in the assay with MOLT-4, in the assay on SK-MEL-5 and in the assay with ACHN was > 100 µM (inactive) throughout. The GI50 in the assay on HT-29 and in the assay on Malme-3M was > 100 µM (inactive) throughout.

As for `Cc1nc(-c2nc(C)c(C(=O)NNC(=O)C[n+]3ccccc3)s2)sc1C(=O)NNC(=O)C[n+]1ccccc1`, the GI50 with OVCAR-5 is > 100 µM (inactive); in the assay on IGROV-1, 70.6 µM (inactive); in the assay with SK-MEL-2, > 100 µM (inactive); with UACC-257 it was 94.2 µM (inactive); with SK-MEL-28, > 100 µM (inactive); in the assay on HL-60, 40.2 µM (inactive). In addition, the GI50 with LOX IMVI was 66.2 µM (inactive); with KM12, > 100 µM (inactive); in the assay with OVCAR-8 it was > 100 µM (inactive); in the assay on HOP-62 it was 33.1 µM (inactive); with MOLT-4, 22.7 µM (inactive); in the assay on SK-MEL-5 it was 45.7 µM (inactive). Moreover, the GI50 is 59.2 µM (inactive) in the assay with ACHN, > 100 µM (inactive) in the assay on HT-29 and > 100 µM (inactive) in the assay with Malme-3M.

Turning to `COC1/C(=C\C(=O)OC(C)(C)C)c2ccccc2N1C(C)=O` (configuration not stated), the GI50 in the assay with IGROV-1 is > 100 µM (inactive); in the assay with SK-MEL-2 it was > 100 µM (inactive); with UACC-257, > 100 µM (inactive); in the assay on SK-MEL-28, > 100 µM (inactive); with HL-60, 36.2 µM (inactive); in the assay with KM12, 9.53 µM (inactive). Moreover, the GI50 with OVCAR-8 was > 100 µM (inactive); in the assay with HOP-62 it was > 100 µM (inactive); with MOLT-4 it was 81.7 µM (inactive); in the assay on ACHN, > 100 µM (inactive); in the assay with HT-29, > 100 µM (inactive); with SR, 48 µM (inactive).
